Results: the NIST ThermoML archive (doi:10.1016/j.jct.2017.11.007)
Numbers after ± are expanded uncertainties.

Experiment: mn = molality of the nth substance listed, in mol/kg
Conditions: 74.66 kPa, Liquid; for speed of sound: Frequency=3 MHz, Single path-length method; for mass density: Vibrating tube method

Cc1cc(C)nc([N-]S(=O)(=O)c2ccc(N)cc2)n1.[Na+] + O
Conditions | mass density [kg/m3] | speed of sound [m/s]
278.15 K, m1 = 0.00501 | 1000.54 ± 0.11 | 1427.9 ± 1.2
278.15 K, m1 = 0.00799 | 1000.88 ± 0.11 | 1428.7 ± 1.2
278.15 K, m1 = 0.01 | 1001.11 ± 0.11 | 1429.2 ± 1.2
278.15 K, m1 = 0.01488 | 1001.67 ± 0.11 | 1430.3 ± 1.2
278.15 K, m1 = 0.01983 | 1002.23 ± 0.11 | 1431.3 ± 1.2
278.15 K, m1 = 0.02501 | 1002.81 ± 0.11 | 1432.3 ± 1.2
278.15 K, m1 = 0.02961 | 1003.34 ± 0.11 | 1433.5 ± 1.2
278.15 K, m1 = 0.03503 | 1003.95 ± 0.11 | 1434.6 ± 1.2
278.15 K, m1 = 0.0401 | 1004.52 ± 0.11 | 1435.7 ± 1.2
278.15 K, m1 = 0.04493 | 1005.06 ± 0.11 | 1436.6 ± 1.2
278.15 K, m1 = 0.04993 | 1005.63 ± 0.11 | 1437.7 ± 1.2
278.15 K, m1 = 0.05504 | 1006.2 ± 0.11 | 1438.8 ± 1.2
278.15 K, m1 = 0.05966 | 1006.73 ± 0.11 | 1439.9 ± 1.2
283.15 K, m1 = 0.00501 | 1000.27 ± 0.11 | 1448.8 ± 1.2
283.15 K, m1 = 0.00799 | 1000.6 ± 0.11 | 1449.4 ± 1.2
283.15 K, m1 = 0.01 | 1000.83 ± 0.11 | 1449.9 ± 1.2
283.15 K, m1 = 0.01488 | 1001.37 ± 0.11 | 1450.9 ± 1.2
283.15 K, m1 = 0.01983 | 1001.92 ± 0.11 | 1451.9 ± 1.2
283.15 K, m1 = 0.02501 | 1002.5 ± 0.11 | 1452.9 ± 1.2
283.15 K, m1 = 0.02961 | 1003.01 ± 0.11 | 1453.9 ± 1.2
283.15 K, m1 = 0.03503 | 1003.61 ± 0.11 | 1455 ± 1.2
283.15 K, m1 = 0.0401 | 1004.18 ± 0.11 | 1456 ± 1.2
283.15 K, m1 = 0.04493 | 1004.71 ± 0.11 | 1456.8 ± 1.2
283.15 K, m1 = 0.04993 | 1005.27 ± 0.11 | 1457.8 ± 1.2
283.15 K, m1 = 0.05504 | 1005.83 ± 0.11 | 1458.8 ± 1.2
283.15 K, m1 = 0.05966 | 1006.35 ± 0.11 | 1459.8 ± 1.2
288.15 K, m1 = 0.00501 | 999.659 ± 0.11 | 1467.2 ± 1.2
288.15 K, m1 = 0.00799 | 999.989 ± 0.11 | 1467.8 ± 1.2
288.15 K, m1 = 0.01 | 1000.21 ± 0.11 | 1468.3 ± 1.2
288.15 K, m1 = 0.01488 | 1000.75 ± 0.11 | 1469.2 ± 1.2
288.15 K, m1 = 0.01983 | 1001.29 ± 0.11 | 1470.1 ± 1.2
288.15 K, m1 = 0.02501 | 1001.86 ± 0.11 | 1471.1 ± 1.2
288.15 K, m1 = 0.02961 | 1002.36 ± 0.11 | 1472 ± 1.2
288.15 K, m1 = 0.03503 | 1002.95 ± 0.11 | 1473 ± 1.2
288.15 K, m1 = 0.0401 | 1003.51 ± 0.11 | 1474 ± 1.2
288.15 K, m1 = 0.04493 | 1004.03 ± 0.11 | 1474.8 ± 1.2
288.15 K, m1 = 0.04993 | 1004.58 ± 0.11 | 1475.7 ± 1.2
288.15 K, m1 = 0.05504 | 1005.14 ± 0.11 | 1476.7 ± 1.2
288.15 K, m1 = 0.05966 | 1005.65 ± 0.11 | 1477.6 ± 1.2
293.15 K, m1 = 0.00501 | 998.758 ± 0.11 | 1483.5 ± 1.2
293.15 K, m1 = 0.00799 | 999.081 ± 0.11 | 1484 ± 1.2
293.15 K, m1 = 0.01 | 999.302 ± 0.11 | 1484.5 ± 1.2
293.15 K, m1 = 0.01488 | 999.834 ± 0.11 | 1485.3 ± 1.2
293.15 K, m1 = 0.01983 | 1000.37 ± 0.11 | 1486.2 ± 1.2
293.15 K, m1 = 0.02501 | 1000.92 ± 0.11 | 1487.1 ± 1.2
293.15 K, m1 = 0.02961 | 1001.42 ± 0.11 | 1487.9 ± 1.2
293.15 K, m1 = 0.03503 | 1002 ± 0.11 | 1488.9 ± 1.2
293.15 K, m1 = 0.0401 | 1002.55 ± 0.11 | 1489.8 ± 1.2
293.15 K, m1 = 0.04493 | 1003.07 ± 0.11 | 1490.5 ± 1.2
293.15 K, m1 = 0.04993 | 1003.61 ± 0.11 | 1491.4 ± 1.2
293.15 K, m1 = 0.05504 | 1004.16 ± 0.11 | 1492.3 ± 1.2
293.15 K, m1 = 0.05966 | 1004.66 ± 0.11 | 1493.2 ± 1.2
298.15 K, m1 = 0.00501 | 997.59 ± 0.11 | 1497.7 ± 1.2
298.15 K, m1 = 0.00799 | 997.912 ± 0.11 | 1498.2 ± 1.2
298.15 K, m1 = 0.01 | 998.128 ± 0.11 | 1498.6 ± 1.2
298.15 K, m1 = 0.01488 | 998.655 ± 0.11 | 1499.4 ± 1.2
298.15 K, m1 = 0.01983 | 999.182 ± 0.11 | 1500.2 ± 1.2
298.15 K, m1 = 0.02501 | 999.733 ± 0.11 | 1501.1 ± 1.2
298.15 K, m1 = 0.02961 | 1000.22 ± 0.11 | 1501.9 ± 1.2
298.15 K, m1 = 0.03503 | 1000.79 ± 0.11 | 1502.8 ± 1.2
298.15 K, m1 = 0.0401 | 1001.34 ± 0.11 | 1503.6 ± 1.2
298.15 K, m1 = 0.04493 | 1001.85 ± 0.11 | 1504.3 ± 1.2
298.15 K, m1 = 0.04993 | 1002.39 ± 0.11 | 1505.2 ± 1.2
298.15 K, m1 = 0.05504 | 1002.93 ± 0.11 | 1506 ± 1.2
298.15 K, m1 = 0.05966 | 1003.42 ± 0.11 | 1506.8 ± 1.2
303.15 K, m1 = 0.00501 | 996.185 ± 0.11 | 1510.1 ± 1.2
303.15 K, m1 = 0.00799 | 996.504 ± 0.11 | 1510.6 ± 1.2
303.15 K, m1 = 0.01 | 996.718 ± 0.11 | 1510.9 ± 1.2
303.15 K, m1 = 0.01488 | 997.238 ± 0.11 | 1511.7 ± 1.2
303.15 K, m1 = 0.01983 | 997.76 ± 0.11 | 1512.4 ± 1.2
303.15 K, m1 = 0.02501 | 998.303 ± 0.11 | 1513.2 ± 1.2
303.15 K, m1 = 0.02961 | 998.79 ± 0.11 | 1514 ± 1.2
303.15 K, m1 = 0.03503 | 999.357 ± 0.11 | 1514.8 ± 1.2
303.15 K, m1 = 0.0401 | 999.892 ± 0.11 | 1515.6 ± 1.2
303.15 K, m1 = 0.04493 | 1000.4 ± 0.11 | 1516.3 ± 1.2
303.15 K, m1 = 0.04993 | 1000.93 ± 0.11 | 1517.1 ± 1.2
303.15 K, m1 = 0.05504 | 1001.47 ± 0.11 | 1517.8 ± 1.2
303.15 K, m1 = 0.05966 | 1001.95 ± 0.11 | 1518.6 ± 1.2
308.15 K, m1 = 0.00501 | 994.563 ± 0.11 | 1520.7 ± 1.2
308.15 K, m1 = 0.00799 | 994.878 ± 0.11 | 1521.2 ± 1.2
308.15 K, m1 = 0.01 | 995.089 ± 0.11 | 1521.5 ± 1.2
308.15 K, m1 = 0.01488 | 995.605 ± 0.11 | 1522.2 ± 1.2
308.15 K, m1 = 0.01983 | 996.12 ± 0.11 | 1523 ± 1.2
308.15 K, m1 = 0.02501 | 996.661 ± 0.11 | 1523.7 ± 1.2
308.15 K, m1 = 0.02961 | 997.14 ± 0.11 | 1524.4 ± 1.2
308.15 K, m1 = 0.03503 | 997.703 ± 0.11 | 1525.2 ± 1.2
308.15 K, m1 = 0.0401 | 998.234 ± 0.11 | 1525.9 ± 1.2
308.15 K, m1 = 0.04493 | 998.733 ± 0.11 | 1526.6 ± 1.2
308.15 K, m1 = 0.04993 | 999.258 ± 0.11 | 1527.3 ± 1.2
308.15 K, m1 = 0.05504 | 999.792 ± 0.11 | 1528 ± 1.2
308.15 K, m1 = 0.05966 | 1000.27 ± 0.11 | 1528.7 ± 1.2
